Laboratory results taken from US20120135997A1, “PHARMACEUTICAL COMPOSITION COMPRISING A LACTAM OR BENZENESULFONAMIDE COMPOUND” (Shionogi & Co., Ltd., priority 2009, published 2012).

Key:
Test in all cases: CYP inhibition test, pooled human liver microsomes
Assay type in all cases: in vitro ADME
CYP1A2 = target: T1, CYP1A2 (Homo sapiens, UniProt P05177); details: O-deethylation of 7-ethoxyresorufin
T1 construct: from tissue; host or cells: pooled human liver microsomes
T1 sequence (P05177 1-516): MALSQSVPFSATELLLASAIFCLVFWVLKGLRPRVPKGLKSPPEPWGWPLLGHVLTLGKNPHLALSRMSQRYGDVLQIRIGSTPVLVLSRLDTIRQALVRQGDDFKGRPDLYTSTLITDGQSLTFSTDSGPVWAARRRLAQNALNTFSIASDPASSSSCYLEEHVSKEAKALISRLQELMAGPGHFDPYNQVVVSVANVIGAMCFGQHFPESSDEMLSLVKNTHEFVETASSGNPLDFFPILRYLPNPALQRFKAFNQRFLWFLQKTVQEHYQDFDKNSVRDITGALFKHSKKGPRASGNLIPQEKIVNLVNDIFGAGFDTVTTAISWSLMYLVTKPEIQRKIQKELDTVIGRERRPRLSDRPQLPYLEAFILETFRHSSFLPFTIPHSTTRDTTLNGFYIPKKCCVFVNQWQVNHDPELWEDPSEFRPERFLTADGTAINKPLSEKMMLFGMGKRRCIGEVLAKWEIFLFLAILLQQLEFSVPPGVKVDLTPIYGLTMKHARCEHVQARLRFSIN
Description: (§1) Using commercially available pooled human liver microsomes and employing typical substrate metabolic reactions of 5 major species of human CYP enzymes (CYP1A2, 2C9, 2C19, 2D6, 3A4), namely, O-deethylation of 7-ethoxyresorufin (CYP1A2), methyl-hydroxylation of tolbutamide (CYP2C9), 4′-hydroxylation of mephenyloin (CYP2C19), O-demethylation of dextromethorphan (CYP2D6), and hydroxylation of terfenadine (CYP3A4), as indicator reactions, the degree of inhibition of each metabolite production by each test compound is evaluated. The reaction conditions are as follows: Substrate: 0.5 μmol/L of ethoxyresorufin (CYP1A2), 100 μmol/L of tolbutamide (CYP2C9), 50 μmol/L of S-mephenyloin (CYP2C19), 5 μmol/L of dextromethorphan (CYP2D6), 1 μmol/L of terfenadine (CYP3A4); Reaction time period: 15 minutes; Reaction temperature: 37° C.; Enzyme: pooled human liver microsomes 0.2 mg protein/mL; Test compound concentration: 1, 5, 10 and 20 μmol/L (four different concentrations). As a reaction solution, the respective five substrates, human liver microsomes, and test compound in the aforementioned amounts are added to a 50 mM Hepes buffer in a 96-well plate. NADPH, which is a coenzyme, is added thereto to start the indicator metabolic reaction. The reaction proceeds for 15 minutes at 37° C., and the solution of methanol/acetonitrile=1/1 (v/v) is added so as to terminate the reaction. Centrifugation is performed for 15 minutes at 3000 rpm, and each metabolite in the centrifuged supernatant is quantified. Namely, resorufin (CYP1A2 metabolite) is quantified with a fluorescence multilabel counter, and hydroxylated tolbutamide (CYP2C9 metabolite), 4′-hydroxylated mephenyloin (CYP2C19 metabolite), dextrorphan (CYP2D6 metabolite) and alcoholized terfenadine (CYP3A4 metabolite) are quantified with LC/MS/MS. Control (100%) is prepared by adding only DMSO, a solvent to dissolve the test compound, to the reaction system. The remaining activity (%) at each concentration after adding the test compound solution is calculated, and the […] is calculated from the concentration and inhibition percentage by inverse estimation with the logistic model.

CYP2C19 = target: T2, CYP2C19 (Homo sapiens, UniProt P33261); details: 4′-hydroxylation of mephenyloin
T2 construct: from tissue; host or cells: pooled human liver microsomes
Description: as §1

CYP2C9 = target: T3, CYP2C9 (Homo sapiens, UniProt P11712); details: methyl-hydroxylation of tolbutamide
T3 construct: from tissue; host or cells: pooled human liver microsomes
Description: as §1

CYP2D6 = target: T4, CYP2D6 (Homo sapiens, UniProt P10635); details: O-demethylation of dextromethorphan
T4 construct: from tissue; host or cells: pooled human liver microsomes
Description: as §1

CYP3A4 = CYP3A4 (Homo sapiens, UniProt P08684); parameters: from tissue; host or cells: pooled human liver microsomes; details: hydroxylation of terfenadine
Description: Using commercially available pooled human liver microsomes and employing typical substrate metabolic reactions of 5 major species of human CYP enzymes (CYP1A2, 2C9, 2C19, 2D6, 3A4), namely, O-deethylation of 7-ethoxyresorufin (CYP1A2), methyl-hydroxylation of tolbutamide (CYP2C9), 4′-hydroxylation of mephenyloin (CYP2C19), O-demethylation of dextromethorphan (CYP2D6), and hydroxylation of terfenadine (CYP3A4), as indicator reactions, the degree of inhibition of each metabolite production by each test compound is evaluated. […] Centrifugation is performed for 15 minutes at 3000 rpm, and each metabolite in the centrifuged supernatant is quantified. Namely, resorufin (CYP1A2 metabolite) is quantified with a fluorescence multilabel counter, and hydroxylated tolbutamide (CYP2C9 metabolite), 4′-hydroxylated mephenyloin (CYP2C19 metabolite), dextrorphan (CYP2D6 metabolite) and alcoholized terfenadine (CYP3A4 metabolite) are quantified with LC/MS/MS. […] The remaining activity (%) at each concentration after adding the test compound solution is calculated, and the […] is calculated from the concentration and inhibition percentage by inverse estimation with the logistic model.

Measured: IC50

T2 sequence (P33261 whole entry): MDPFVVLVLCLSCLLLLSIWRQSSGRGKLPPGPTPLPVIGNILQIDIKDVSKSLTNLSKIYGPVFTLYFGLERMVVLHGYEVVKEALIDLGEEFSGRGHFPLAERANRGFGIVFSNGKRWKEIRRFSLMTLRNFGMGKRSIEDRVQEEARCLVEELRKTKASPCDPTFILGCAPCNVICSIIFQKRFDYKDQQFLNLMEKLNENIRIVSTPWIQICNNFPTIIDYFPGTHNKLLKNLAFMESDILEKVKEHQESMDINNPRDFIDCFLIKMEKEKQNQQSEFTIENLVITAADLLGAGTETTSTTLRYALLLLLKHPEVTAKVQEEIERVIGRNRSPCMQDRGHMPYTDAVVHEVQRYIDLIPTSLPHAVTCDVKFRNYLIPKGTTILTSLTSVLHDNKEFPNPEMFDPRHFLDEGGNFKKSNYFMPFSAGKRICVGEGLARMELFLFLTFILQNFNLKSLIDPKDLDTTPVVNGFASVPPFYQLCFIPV
Chain of CYP3A4 (P08684 whole entry): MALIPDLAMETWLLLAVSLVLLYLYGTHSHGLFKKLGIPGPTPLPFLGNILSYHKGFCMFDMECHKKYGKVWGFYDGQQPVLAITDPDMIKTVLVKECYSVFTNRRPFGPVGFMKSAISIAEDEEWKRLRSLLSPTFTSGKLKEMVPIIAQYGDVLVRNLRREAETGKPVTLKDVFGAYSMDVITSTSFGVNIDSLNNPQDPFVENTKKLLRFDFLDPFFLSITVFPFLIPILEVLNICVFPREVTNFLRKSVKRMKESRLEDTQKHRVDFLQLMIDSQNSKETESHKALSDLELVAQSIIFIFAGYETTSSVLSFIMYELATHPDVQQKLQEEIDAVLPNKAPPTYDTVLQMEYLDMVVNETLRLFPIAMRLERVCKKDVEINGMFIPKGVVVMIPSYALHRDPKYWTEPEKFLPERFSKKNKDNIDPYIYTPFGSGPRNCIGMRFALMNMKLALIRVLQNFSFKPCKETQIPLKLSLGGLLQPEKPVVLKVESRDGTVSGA
T3 sequence (P11712 whole entry): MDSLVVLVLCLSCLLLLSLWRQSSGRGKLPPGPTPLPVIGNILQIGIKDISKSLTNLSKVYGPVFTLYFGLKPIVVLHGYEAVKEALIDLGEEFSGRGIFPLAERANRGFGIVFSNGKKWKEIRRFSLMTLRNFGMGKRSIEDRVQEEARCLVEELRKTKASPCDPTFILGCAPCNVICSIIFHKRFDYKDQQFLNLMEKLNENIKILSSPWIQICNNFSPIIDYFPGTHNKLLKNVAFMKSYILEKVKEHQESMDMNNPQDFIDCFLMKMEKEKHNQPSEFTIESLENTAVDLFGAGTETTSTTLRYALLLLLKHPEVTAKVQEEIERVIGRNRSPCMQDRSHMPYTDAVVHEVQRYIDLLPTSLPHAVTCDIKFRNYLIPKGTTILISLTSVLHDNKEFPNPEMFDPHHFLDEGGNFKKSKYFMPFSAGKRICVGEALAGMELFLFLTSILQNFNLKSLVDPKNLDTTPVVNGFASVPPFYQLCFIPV
T4 sequence (P10635 whole entry): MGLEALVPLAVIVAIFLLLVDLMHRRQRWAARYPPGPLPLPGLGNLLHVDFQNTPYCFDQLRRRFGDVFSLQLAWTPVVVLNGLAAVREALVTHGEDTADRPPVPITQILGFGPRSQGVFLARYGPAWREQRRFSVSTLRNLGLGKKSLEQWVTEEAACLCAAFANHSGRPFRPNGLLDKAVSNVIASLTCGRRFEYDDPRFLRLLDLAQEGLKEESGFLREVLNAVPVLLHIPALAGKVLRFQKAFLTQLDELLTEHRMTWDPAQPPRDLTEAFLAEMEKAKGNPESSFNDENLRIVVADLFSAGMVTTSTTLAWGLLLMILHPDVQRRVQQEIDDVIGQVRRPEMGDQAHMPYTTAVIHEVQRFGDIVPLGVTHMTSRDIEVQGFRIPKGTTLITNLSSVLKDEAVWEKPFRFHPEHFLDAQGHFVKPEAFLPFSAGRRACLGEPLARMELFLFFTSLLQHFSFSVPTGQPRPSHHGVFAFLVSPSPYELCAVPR

COc1cc(NS(=O)(=O)c2ccccc2CO)ccc1-n1cnc(C)c1 [Compound 121]
> 10 µM: CYP1A2 | CYP2C19 | CYP2C9 | CYP2D6 | CYP3A4
